From US20250230154A1, “COMPOUND HAVING SHP2 PROTEIN DEGRADING ACTIVITY, AND MEDICAL USES THEREOF” (UBIX THERAPEUTICS, INC., priority 2021, published 2025)

Target: T1, SHP2 protein (Homo sapiens, UniProt Q06124)
T1 sequence (Q06124 1-593): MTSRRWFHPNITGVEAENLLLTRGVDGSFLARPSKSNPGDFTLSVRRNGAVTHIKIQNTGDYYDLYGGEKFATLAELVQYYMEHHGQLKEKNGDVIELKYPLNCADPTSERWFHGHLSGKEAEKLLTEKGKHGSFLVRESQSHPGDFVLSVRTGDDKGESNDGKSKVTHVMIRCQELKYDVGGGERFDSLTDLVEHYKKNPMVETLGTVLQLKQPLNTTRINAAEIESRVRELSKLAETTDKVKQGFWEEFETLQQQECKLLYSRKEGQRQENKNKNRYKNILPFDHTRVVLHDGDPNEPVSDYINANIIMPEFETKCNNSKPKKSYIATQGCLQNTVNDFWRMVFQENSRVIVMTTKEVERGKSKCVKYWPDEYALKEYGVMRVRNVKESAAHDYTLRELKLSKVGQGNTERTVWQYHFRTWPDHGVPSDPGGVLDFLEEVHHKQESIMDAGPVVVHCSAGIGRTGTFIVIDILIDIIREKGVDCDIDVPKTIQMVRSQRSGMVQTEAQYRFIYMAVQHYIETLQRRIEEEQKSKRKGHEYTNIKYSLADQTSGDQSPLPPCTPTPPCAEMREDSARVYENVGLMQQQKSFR
Experiment: Measurement of SHP2 protein degradation in MV-4-11 cells (western blotting)
Type: cell-based
Set-up: endogenous in cells; host or cells: MV-4-11
Conditions: MV-4-11 cells, 24 hours
Method: Experimental Example 2: Measurement of SHP2 Protein Degradation in MV-4-11 Cells
MV-4-11 cells were treated with the synthesized Example compound, and the amount of SHP2 protein present in the cells was measured using western blotting detection. The protocol of the experiment conducted using MV-4-11 cells was as follows:
[Culture] MV-4-11 cells resuspended in IMDM MEDIUM (Hyclone, SH30228.01) containing 5% FBS (Hyclone, SV30207.02) and 1% Penicillin-streptomycin (Welgene, LS 202-02) were seeded at a density of 1×10^6/mL/well in a 12-well plate in an amount of 1 ml each.
[Compound treatment] The 12-well plate was treated as follows: Cells were treated with compounds at a final concentration of […] made by serial dilution of 10 mM stock with DMSO in 1/100 increments […]. After 24 hours, cells were harvested. For the negative control group, DMSO diluted 1/100 to the media (3 mL DMSO+297 mL media) was added.
[Harvest] Each well was collected in a 1.5 mL microtube by pipetting with a 1 mL pipette and centrifuged (500 g, 5 min, 4° C.). The supernatant was removed. It was washed with PBS, and then centrifuged again (500 g, 5 min, 4° C.). Thereafter, the supernatant was removed to prepare a pellet.
[Cell Lysis and Sample preparation] Lysis buffer was prepared as follows: […] of RIPA buffer (Biosesang, RC2038-050-00)+0.5 mM PMSF (SIGMA, P7626)+1× Protease/Phosphatase Inhibitor (Cell signaling, 5872S) per well was added and placed on ice for 30 minutes (vortexing at 0 and 30 minutes, respectively). After sonication process (10 seconds pulse, 30 seconds rest, 5 cycles, 70% amplification), centrifugation (15000 g, 15 min, 4° C.) was performed, and then only the supernatant was taken and transferred to a microtube. The sample was diluted ¼ with RIPA buffer in a 96-well plate, and mixed with A:B=50:1 of the BCA Protein Assay Kit (iNtRON, 21071). […] each of the mixture was left at 37° C. for 30 minutes, and cooled for 10 minutes. Then, absorbance was measured at 562 nm with the SYNERGY H1 microplate reader from BioTek. After making a sample by quantifying the protein with the measured value, boiling was performed at 70° C. for 10 minutes. At this time, the sample buffer used was a mixture of NuPAGE or Bolt 4× sample buffer (Invitrogen) and each 10× sample reducing agent according to the gel to be used, and RIPA buffer was used for protein dilution.
[Western blotting detection method] The same amount of sample was loaded on NuPAGE or Bolt Bis-tris 4-12% gradient gel and run (200 V, 35 minutes). It was transferred to 0.2 mm NC membrane with Trans-blot Turbo (BIO-RAD) (1.3 A constant, 25 V limit, 15 minutes). Blocking was performed at room temperature for 1 hour with Skim milk or Intercept Blocking Buffer (LI-COR, 927-60001):0.1% TBST=1:1. Anti-SHPTP2 Mouse (1:500 in 2% BSA/0.2% TBST, size: 70 kDa, Santacruz sc-7384) was incubated overnight at 4° C., and Anti-GAPDH Rabbit (1:2,000 in 2% BSA/0.2% TBST, size: 37 kDa, CST #2118) was incubated at room temperature for 1 hour 30 minutes or 3 hours. It was washed 3 times for 5 minutes each with 0.2% TBST washing buffer. Secondary antibody Anti-Rabbit IgG (1:5,000 in 2% BSA/0.2% TBST, CST), IRDye® 680RD Goat anti-Rabbit IgG Secondary Antibody (1:10,000 in 2% BSA/0.2% TBST, LI-COR 926-68071) were added and incubated for 45 minutes on a rocker at room temperature. It was washed 5 times for 5 minutes each with 0.2% TBST washing buffer and detected with LI-COR's Odyssey. At this time, SHPTP2 was detected using SuperSignal West Pico PLUS Chemiluminescent Substrate, and house-keeping genes were also detected.
In the results of Table 4 below, Compounds 1-7, 13-19, and 21-26 are results in KYSE-520 cells, and the others are results in MV-4-11 cells.

Structure (SMILES) | SHP2 degradation (%) 10 nM [%] | SHP2 degradation (%) 100 nM [%] | SHP2 degradation (%) 1000 nM [%]
Cc1ncsc1-c1ccc(CNC(=O)[C@@H]2C[C@@H](O)CN2C(=O)[C@@H](NC(=O)C2(F)CC2)C(C)(C)C)c(OCCOc2cnc(N3CCC(CCCC(=O)Nc4cccc(Sc5cnc(N6CCC(C)(CN)CC6)cn5)c4Cl)CC3)nc2)c1 [Example 90, (2S,4R)—N-(2-(2-((2-(4-(4-((3-((5-(4-(aminomethyl)-4-methylpiperidin-1-yl)pyrazin-2-yl)thio)-2-chlorophenyl)amino)-4-oxobutyl)piperidin-1-yl)pyrimidin-5-yl)oxy)ethoxy)-4-(4-methylthiazol-5-yl)benzyl)-1-((S)-2-(1-fluorocyclopropane-1-carboxamido)-3,3-dimethylbutanoyl)-4-hydroxypyrrolidine-2-carboxamide] | 6 | 97 | 98
Cc1ncsc1-c1ccc(CNC(=O)[C@@H]2C[C@@H](O)CN2C(=O)[C@@H](NC(=O)C2(F)CC2)C(C)(C)C)c(OCCCN2CCC(CC(=O)Nc3cccc(Sc4cnc(N5CC[C@H](CN)C5)cn4)c3Cl)CC2)c1 [Example 11, (2S,4R)—N-(2-(3-(4-(2-((3-((5-((R)-3-(aminomethyl)pyrrolidin-1-yl)pyrazin-2-yl)thio)-2-chlorophenyl)amino)-2-oxoethyl)piperidin-1-yl)propoxy)-4-(4-methylthiazol-5-yl)benzyl)-1-((S)-2-(1-fluorocyclopropane-1-carboxamido)-3,3-dimethylbutanoyl)-4-hydroxypyrrolidine-2-carboxamide] | −8.9 | 19.2 | 35.9
Cc1ncsc1-c1ccc(CNC(=O)[C@@H]2C[C@@H](O)CN2C(=O)[C@@H](NC(=O)C2(F)CC2)C(C)(C)C)c(OCC2CCN(C(=O)CC(=O)Nc3cccc(Sc4ncc(N5CCC(C)(N)CC5)nc4N)c3Cl)CC2)c1 [Example 30, (2S,4R)—N-(2-((1-(3-((3-((3-amino-5-(4-amino-4-methylpiperidin-1-yl)pyrazin-2-yl)thio)-2-chlorophenyl)amino)-3-oxopropanoyl)piperidin-4-yl)methoxy)-4-(4-methylthiazol-5-yl)benzyl)-1-((S)-2-(1-fluorocyclopropane-1-carboxamido)-3,3-dimethylbutanoyl)-4-hydroxypyrrolidine-2-carboxamide] | 71.5 | 95.5 | –
CC(=O)N[C@H](C(=O)N1C[C@H](O)C[C@H]1C(=O)NCc1ccc(-c2scnc2C)cc1OCCCN1CCN(C(=O)CC(=O)Nc2cccc(Sc3cnc(N4CCC(C)(CN)CC4)cn3)c2Cl)CC1)C(C)(C)C [Example 61, (2S,4R)-1-((S)-2-acetamido-3,3-dimethylbutanoyl)-N-(2-(3-(4-(3-((3-((5-(4-(aminomethyl)-4-methylpiperidin-1-yl)pyrazin-2-yl)thio)-2-chlorophenyl)amino)-3-oxopropanoyl)piperazin-1-yl)propoxy)-4-(4-methylthiazol-5-yl)benzyl)-4-hydroxypyrrolidine-2-carboxamide] | 87.3 | 99.4 | –
CC(=O)N[C@H](C(=O)N1C[C@H](O)C[C@H]1C(=O)NCc1ccc(-c2scnc2C)cc1OCCCN1CCC(CC(=O)Nc2cccc(Sc3cnc(N4CCC(C)(CN)CC4)cn3)c2Cl)CC1)C(C)(C)C [Example 12, (2S,4R)-1-((S)-2-acetamido-3,3-dimethylbutanoyl)-N-(2-(3-(4-(2-((3-((5-(4-(aminomethyl)-4-methylpiperidin-1-yl)pyrazin-2-yl)thio)-2-chlorophenyl)amino)-2-oxoethyl)piperidin-1-yl)propoxy)-4-(4-methylthiazol-5-yl)benzyl)-4-hydroxypyrrolidine-2-carboxamide] | 23.9 | 88.4 | 93.3
Cc1ncsc1-c1ccc(CNC(=O)[C@@H]2C[C@@H](O)CN2C(=O)[C@@H](NC(=O)C2(F)CC2)C(C)(C)C)c(OCCN2CCN(c3ccc(C(=O)Nc4cccc(Sc5cnc(N6CCC(C)(CN)CC6)cn5)c4Cl)nn3)CC2)c1 [Example 85, N-(3-((5-(4-(aminomethyl)-4-methylpiperidin-1-yl)pyrazin-2-yl)thio)-2-chlorophenyl)-6-(4-(2-(2-(((2S,4R)-1-((S)-2-(1-fluorocyclopropane-1-carboxamido)-3,3-dimethylbutanoyl)-4-hydroxypyrrolidine-2-carboxamido)methyl)-5-(4-methylthiazol-5-yl)phenoxy)ethyl)piperazin-1-yl)pyridazine-3-carboxamide] | 73 | 97.5 | –

Now from value to compound:

SHP2 degradation (%) 10 nM [%] | SHP2 degradation (%) 100 nM [%] | SHP2 degradation (%) 1000 nM [%] | Structure (SMILES)
90.0 | 99.9 | – | Cc1ncsc1-c1ccc(CNC(=O)[C@@H]2C[C@@H](O)CN2C(=O)[C@@H](NC(=O)C2(F)CC2)C(C)(C)C)c(OCCN2CCN(C(=O)C(C)C(=O)Nc3cccc(Sc4cnc(N5CCC(C)(CN)CC5)cn4)c3Cl)CC2)c1 (stereo partly drawn) [Example 58, (2S,4R)—N-(2-(2-(4-(3-((3-((5-(4-(aminomethyl)-4-methylpiperidin-1-yl)pyrazin-2-yl)thio)-2-chlorophenyl)amino)-2-methyl-3-oxopropanoyl)piperazin-1-yl)ethoxy)-4-(4-methylthiazol-5-yl)benzyl)-1-((S)-2-(1-fluorocyclopropane-1-carboxamido)-3,3-dimethylbutanoyl)-4-hydroxypyrrolidine-2-carboxamide]
19 | 76.5 | 94 | Cc1ncsc1-c1ccc(CNC(=O)[C@@H]2C[C@@H](O)CN2C(=O)[C@@H](NC(=O)C2(F)CC2)C(C)(C)C)c(OCCCC2CCN(C(=O)C(=O)Nc3cccc(Sc4cnc(N5CCC(C)(CN)CC5)cn4)c3Cl)CC2)c1 [Example 28, (2S,4R)—N-(2-(3-(1-(2-((3-((5-(4-(aminomethyl)-4-methylpiperidin-1-yl)pyrazin-2-yl)thio)-2-chlorophenyl)amino)-2-oxoacetyl)piperidin-4-yl)propoxy)-4-(4-methylthiazol-5-yl)benzyl)-1-((S)-2-(1-fluorocyclopropane-1-carboxamido)-3,3-dimethylbutanoyl)-4-hydroxypyrrolidine-2-carboxamide]
